Source: patent US10974081B2, “Treatment and prevention of sleep disorders” (Purdue Pharma L.P., priority 2016, dated 2021)
≈ marks a conversion by molar mass, not a printed value. Where two headings read alike, the source gives them in different places.

How the values were obtained:
[1] = Aqueous solubility at pH about 6.8; assay type: physicochemical; conditions: 25 °C, pH 6.8, aqueous buffer, kinetic from dmso stock
rat liver microsomes = assay: In vitro metabolic stability, rat liver microsomes; assay type: in vitro ADME; conditions: 2 μM, % remaining after 30 minutes at 37° C.
Procedure: (§1) The comparative in vitro metabolic stabilities of Compounds (1F), […], and W-212393 were determined upon exposure to human liver microsomes or rat liver microsomes according to a procedure disclosed in, e.g., Example 14 of U.S. Pat. No. 9,290,488, which is hereby incorporated by reference in its entirety. Liver microsomes from Crj;CD rats or humans were incubated with 2 μM of each tested compound; thereafter, the supernatant was analyzed by HPLC-MS for the concentration of the tested compound present. Human liver microsomes, pooled, 20 mg/mL, were obtained from […] #H0610). […] Alternatively and if desired, rat liver microsomes can be obtained commercially from, e.g., XenoTech (Sprague-Dawley rat liver microsomes, pooled, 20 mg/mL, cat #R1000). β-NADPH (β-nicotinamide adenine dinucleotide 2'-phosphate reduced tetrasodium salt hydrate) was obtained from Oriental Yeast Co., Ltd. (Tokyo, Japan). Each tested compound, present at an initial concentration of 2 μM, was incubated at 37° C. in the presence of 0.5 mg/mL of either human microsomes or rat microsomes in suspension in 50 mM Tris-HCl buffer (7.4 pH), 150 mM KCl, 10 mM MgCl2, and 1 mM β-NADPH. Incubation was initiated upon the addition of a 100-fold concentrated solution of the tested compound to one of the microsome preparations. Incubation was terminated by addition of a two-fold volume of a 1/1 mixture of acetonitrile/methanol after either 0 minutes or 30 minutes of incubation at 37° C. Thereafter, proteins and other macromolecules from the microsome preparation were removed by centrifugation. All incubations were conducted in duplicate. […] The HPLC system consisted of a Waters 2795 separations module (Waters Corp., Milford, Mass.) equipped with an inline degasser, temperature controlled auto-sampler, and column oven. The analytical column was a Waters […], 2.1 mm×20 mm column. The mass analyzer was a Waters ZQ, single quadrupole mass spectrometer equipped with an electrospray ionization source operating in the positive ionization mode and utilizing a stainless steel spray capillary. […]

in vivo = conditions: male, Crl, CD(SD), rat, brain homogenate and plasma, intravenous, 0.5 mg/kg
human liver microsomes = assay: In vitro metabolic stability, human liver microsomes; assay type: in vitro ADME; conditions: 2 μM, % remaining after 30 minutes at 37° C.
Procedure: as §1

[2] = Rat protein binding, equilibrium dialysis of rat plasma; assay type: in vitro ADME; conditions: rat, rat plasma, 2 μg/mL, 24 hours dialysis at 37° C.
Procedure: (§2) The extent of in vitro binding of Compound (1F), […], or W-212393 to rat plasma was determined as an assessment of the protein binding of each compound, i.e., compound unavailable for modulating receptor activity. Plasma from rats containing a tested compound in one chamber of a dialysis cell was dialyzed with PBS in the other chamber; thereafter, the supernatant from each chamber was analyzed for the concentration of the tested compound present. A cell suitable for equilibrium dialysis was used in the determinations. The dialysis membrane described in Example 10 (with molecular mass cutoff of 12,000-14,000 Da) separated the dialysis cell into two chambers. The membrane was soaked with purified water and PBS before being placed into the dialysis cell. 4 μL of an iv formulation of each tested compound was added to 996 μL of rat plasma, the latter obtained using syringe containing heparin and EDTA by the procedure described in Example 10, to provide a plasma sample with a tested compound concentration of 2 μg/mL. 450 μL of the plasma sample was applied to one chamber (plasma chamber) of the dialysis cell. A 450 μL aliquot of PBS was applied to the other chamber (PBS chamber) of the dialysis cell. The dialysis study was conducted in duplicate for each tested compound. After 24 hours of equilibrium dialysis at 37° C., 30 μL of liquid from the plasma chamber of the dialysis cell was collected and to this was added 270 μL of fresh PBS (this combination was designated Sample “1”). Then, 270 μL of liquid from the PBS chamber of the dialysis cell was collected and to this was added 30 μL of control rat plasma (i.e., rat plasma never exposed to any test compound, this combination was designated Sample “2”). Thereafter, each sample was mixed well and stored in a freezer until the next analysis step. After the protein precipitated in the freezer, each supernatant thusly obtained was analyzed by LC-MS-MS for unbound test compound. […] Thereafter, the percentage of rat protein-bound (“RPB”) tested compound was calculated as follows: […]

[3] = In vivo bioavailability after oral dosing; conditions: male, Sprague-Dawley [Crl:CD(SD)], rat, plasma; 1 mg/kg oral, non-fasted; mean of multiple determinations
[4] = In vivo functional observational battery (FOB); conditions: male, Crl:CD(SD), rat, in vivo, po
rats [5] = assay: In vivo functional observational battery (FOB); conditions: for Increased touch response: 10 mg/kg
ORL-1 receptor = ORL-1 receptor (Homo sapiens, UniProt P41146); assay: Functional [^35S]GTPγS binding assay, ORL-1; assay type: biochemical; conditions: from ORL-1 Emax results in Table 21
Chain of ORL-1 receptor (P41146 whole entry): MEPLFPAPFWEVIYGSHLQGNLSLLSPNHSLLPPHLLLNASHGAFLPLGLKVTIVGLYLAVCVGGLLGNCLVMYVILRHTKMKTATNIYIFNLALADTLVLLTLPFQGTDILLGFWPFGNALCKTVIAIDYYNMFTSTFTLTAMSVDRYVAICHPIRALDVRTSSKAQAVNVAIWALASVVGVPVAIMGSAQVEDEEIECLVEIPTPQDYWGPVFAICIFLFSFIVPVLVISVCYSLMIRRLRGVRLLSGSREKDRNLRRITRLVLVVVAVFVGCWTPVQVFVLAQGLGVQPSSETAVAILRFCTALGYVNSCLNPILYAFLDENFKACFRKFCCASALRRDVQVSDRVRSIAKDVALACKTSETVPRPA

mu-opioid receptor = mu-opioid receptor (Homo sapiens, UniProt P35372); conditions: determined in Example 18 of U.S. Pat. No. 8,476,271; cited from earlier work
Chain of mu-opioid receptor (P35372 whole entry): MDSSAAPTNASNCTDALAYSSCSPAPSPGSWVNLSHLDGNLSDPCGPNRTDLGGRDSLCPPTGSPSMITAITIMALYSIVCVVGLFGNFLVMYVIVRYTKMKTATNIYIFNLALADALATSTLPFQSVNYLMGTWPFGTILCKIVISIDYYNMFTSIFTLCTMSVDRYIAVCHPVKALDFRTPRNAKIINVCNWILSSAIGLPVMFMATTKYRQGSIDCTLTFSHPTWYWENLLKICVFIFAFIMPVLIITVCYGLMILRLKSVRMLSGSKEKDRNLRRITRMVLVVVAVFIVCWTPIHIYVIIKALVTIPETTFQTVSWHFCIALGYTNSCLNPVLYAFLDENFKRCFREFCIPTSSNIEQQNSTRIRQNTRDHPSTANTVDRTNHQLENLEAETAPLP

[6] = Free unbound compound fraction, equilibrium dialysis of rat serum; assay type: in vitro ADME; conditions: male, Crl:CD (SD), rat, rat serum; 2 μg/mL, 24 hours dialysis at 37° C.
Procedure: (§3) The extent of in vitro binding of Compound (1F) or W-212393 to rat serum was determined as an assessment of the availability of free unbound compound for modulating receptor activity according to a procedure disclosed in, e.g., Example 15 of U.S. Pat. No. 9,290,488, which is hereby incorporated by reference in its entirety. Serum from rats containing a tested compound in one chamber of a dialysis cell was dialyzed with phosphate buffered saline (“PBS”) in the other chamber; thereafter, the supernatant from each chamber was analyzed for the concentration of the tested compound present. […] The final concentration of each tested compound in the serum sample was adjusted to 2 μg/mL by adding an appropriate volume of PBS. A cell suitable for equilibrium dialysis was used in the determinations. A SPECTRA/POR dialysis membrane (with molecular mass cutoff of 12,000-14,000 Da, Spectrum Laboratories, Inc., Rancho Dominguez, Calif.) separated the dialysis cell into two chambers. A 500 μL aliquot of the serum sample containing a tested compound was applied to one chamber (serum chamber) of the dialysis cell. A 500 μL aliquot of PBS was applied to the other chamber (PBS chamber) of the dialysis cell. The dialysis study was conducted in duplicate for each tested compound. After 24 hours of equilibrium dialysis at 37° C., 30 μL of liquid from the serum chamber of the dialysis cell was collected and to this was added 270 μL of fresh PBS (this combination was designated Sample “A”). Then, 270 μL of liquid from the PBS chamber of the dialysis cell was collected and to this was added 30 μL of control rat serum (i.e., rat serum never exposed to any test compound, this combination was designated Sample “B”). […] Each supernatant was analyzed by LC-MS-MS. […] Thereafter, the percentage of free unbound tested compound was calculated from the ratio of the tested compound amount determined from Sample B divided by the sum of the tested compound amounts determined from Sample A and Sample B.

rat serum = assay: as above; assay type: in vitro ADME; conditions: average of multiple determinations
Procedure: as §3

rat plasma = assay: Rat protein binding, equilibrium dialysis of rat plasma; assay type: in vitro ADME
Procedure: as §2

chronic insomniacs = conditions: 10 mg zolpidem, PSG in chronic insomniacs; cited from earlier work
rats [7] = assay: EEG/EMG sleep-wake analysis, single administration compared to zolpidem; assay type: in vivo, rat
[8] = 50 mM phosphate buffer, second procedure (50 mM phosphate buffer, HPLC), read-out: Solubility at pH 6.8
[9] = first procedure (JP2 solution, LC-MS), read-out: Solubility at pH 6.8
[10] = 30 mg/kg, 1 h after administration
[11] = 30 mg/kg, 2 h after administration
[12] = 30 mg/kg, 4 h after administration
[13] = 30 mg/kg, 6 h after administration
[14] = 30 mg/kg, 8 h after administration
[15] = 30 mg/kg, 24 h after administration
[16] = 300 mg/kg, 1 h after administration
[17] = 300 mg/kg, 2 h after administration
[18] = 300 mg/kg, 4 h after administration
[19] = 300 mg/kg, 6 h after administration
[20] = 300 mg/kg, 8 h after administration
[21] = 300 mg/kg, 24 h after administration

Q: For C[C@@H]1C[C@@H]2C[C@H](C1)C[C@@H](N1[C@@H]3CCC[C@H]1C[C@@H](n1c(=O)c(C(=O)O)nc4ccccc41)C3)C2 [Compound 405K], which solubility at 16 h [1, 8] is on record?
A: 5 µM (≈ 2.25 µg/mL)

Q: And the solubility at 16 h [1, 9]?
A: 8 µM (≈ 3.6 µg/mL)

Q: What about the solubility at 16 h ([1]; pH of about 6.8, average of two determinations, read-out: aqueous solubility, average) of the same molecule?
A: ~6.5 µM (≈ 2.92 µg/mL)

Q: What about the “Rat Metabolic Stability (%)” value (rat liver microsomes) of the same molecule?
A: 96.9%

Q: What about the Kp at 30 min (in vivo) of the same molecule?
A: 0

Q: What about the “Human Metabolic Stability (%)” value (human liver microsomes) of the same molecule?
A: 95.1%

Q: And the fraction unbound at 24 h, 2 μg/mL [2]?
A: ~0.14

Q: What about the bioavailability [3] of the same molecule?
A: 63.7%

Q: What does the source list for C[C@@H]1C[C@@H]2C[C@H](C1)C[C@@H](N1[C@@H]3CCC[C@H]1C[C@@H](n1c(=O)c(C(=O)O)nc4ccccc41)C3)C2 [Compound 405]?
A: NOAEL [4]: 10 mg/kg; Increased touch response (rats [5]; 1 h after administration): 1 of 6; Increased touch response (rats [5]; 2 h after administration): N; Increased touch response (rats [5]; 4 h after administration): N; Increased touch response (rats [5]; 6 h after administration): N; Increased touch response (rats [5]; 8 h after administration): N; Increased touch response (rats [5]; 24 h after administration): N; Biting behavior (rats [5]; [10]): N; Jumping (rats [5]; [10]): N; Biting behavior (rats [5]; [11]): N; Jumping (rats [5]; [11]): N; Biting behavior (rats [5]; [12]): N; Jumping (rats [5]; [12]): N; Biting behavior (rats [5]; [13]): 3 of 6; Jumping (rats [5]; [13]): 1 of 6; Biting behavior (rats [5]; [14]): N; Jumping (rats [5]; [14]): N; Biting behavior (rats [5]; [15]): N; Jumping (rats [5]; [15]): N; Biting behavior (rats [5]; 100 mg/kg, 1 h after administration): N; Biting behavior (rats [5]; 100 mg/kg, 2 h after administration): N; Biting behavior (rats [5]; 100 mg/kg, 4 h after administration): N; Biting behavior (rats [5]; 100 mg/kg, 6 h after administration): 1 of 6; Biting behavior (rats [5]; 100 mg/kg, 8 h after administration): 1 of 6; Biting behavior (rats [5]; 100 mg/kg, 24 h after administration): N; Biting behavior (rats [5]; [16]): N; Jumping (rats [5]; [16]): N; Biting behavior (rats [5]; [17]): N; Jumping (rats [5]; [17]): N; Biting behavior (rats [5]; [18]): N; Jumping (rats [5]; [18]): N; Biting behavior (rats [5]; [19]): 2 of 6; Jumping (rats [5]; [19]): 1 of 6; Biting behavior (rats [5]; [20]): 1 of 6; Jumping (rats [5]; [20]): 2 of 6; Biting behavior (rats [5]; [21]): N; Jumping (rats [5]; [21]): N

Q: What does the source list for O=C(O)c1nc2ccccc2n([C@H]2C[C@H]3CCC[C@@H](C2)N3C2CC3CCCC(C3)C2)c1=O (stereo partly shown) [Compound (1C)]?
A: agonist classification at ORL-1 from Emax (ORL-1 receptor): partial agonists; GTPγS Mu Emax (mu-opioid receptor): 0%

Q: For O=C(O)c1nc2ccccc2n([C@H]2C[C@H]3CCC[C@@H](C2)N3C2CC3CCCC(C3)C2)c1=O (stereo partly shown) [Compound (1F)], which solubility at 16 h [1, 8] is on record?
A: 35 µM (≈ 15.2 µg/mL)

Q: And the solubility at 16 h [1, 9]?
A: > 50 µM

Q: And the solubility at 16 h ([1]; pH of about 6.8, over both determinations, read-out: aqueous solubility)?
A: ≥ 35 µM

Q: What about the “Rat Metabolic Stability (%)” value (rat liver microsomes) of the same molecule?
A: 95.3%

Q: What about the “Human Metabolic Stability (%)” value (human liver microsomes) of the same molecule?
A: 98.7%

Q: What about the fraction unbound at 24 h, 2 μg/mL [6] of the same molecule?
A: 0.65 to 0.7

Q: And the “free unbound compound fraction, average” value (rat serum)?
A: 67.5%

Q: What about the fraction unbound at 24 h, 2 μg/mL [2] of the same molecule?
A: 0.491

Q: And the “Rat Protein Binding (%)” value (rat plasma; 2 μg/mL, 24 hours dialysis at 37° C.)?
A: 53.0%

Q: And the “bound compound fraction, average” value (rat plasma; average of multiple determinations)?
A: 52%

Q: For Cc1ccc(-c2nc3ccc(C)cn3c2CC(=O)N(C)C)cc1 [zolpidem, reference compound], which “Mean percent SE higher than placebo group” value (chronic insomniacs) is on record?
A: 7%

Q: What about the overall sleep effect (rats [7]; single zolpidem dose of 10 mg/kg oral) of the same molecule?
A: sleep-enhancing effect

Q: What about the “effect on percentage of time spent in REM sleep” value (rats [7]; zolpidem 10 mg/kg oral (FIG. 17B, 18B)) of the same molecule?
A: no significant effects

Q: What about the “NREM sleep versus vehicle” value (rats [7]; zolpidem 10 mg/kg oral, 3 hour block 0-3 hours after dosing (FIG. 18C)) of the same molecule?
A: significant increase

Q: And the wakefulness versus vehicle (rats [7]; zolpidem 10 mg/kg oral, 3 hour blocks, 0-12 hours after administration (FIG. 18A))?
A: decreased tendency

Q: And the “percentage of time spent in wakefulness” value (rats [7]; zolpidem 10 mg/kg oral, at 1 hour after dosing (FIG. 17A))?
A: about 46%

Q: And the “percentage of time spent in NREM sleep” value (rats [7]; zolpidem 10 mg/kg oral, at 1 hour after dosing (FIG. 17C))?
A: about 53%

Q: And the “percentage of time spent in wakefulness” value (rats [7]; zolpidem 10 mg/kg oral, at 10 hours after dosing (FIG. 17A))?
A: ~43%

Q: What about the “percentage of time spent in NREM sleep” value (rats [7]; zolpidem 10 mg/kg oral, at 15 hours after dosing (FIG. 17C)) of the same molecule?
A: ~30%

Q: What about the “percentage of time spent in wakefulness” value (rats [7]; zolpidem 10 mg/kg oral, at 15 hours after dosing, lights-on period (FIG. 17A)) of the same molecule?
A: about 69%
